Patent publication EP4603105A1, “PHARMACEUTICAL COMPOSITION CONTAINING CYCLIC COMPOUND HAVING SELECTIVE KRAS INHIBITORY EFFECT AGAINST HRAS AND NRAS” (CHUGAI SEIYAKU KABUSHIKI KAISHA, priority 2022, dated 2024)
*1 amine or outer side, *2 acyl side, *3 side chain or, on linkers, in order; H or OH if unused. Where a SMILES comes first, the peptide text is derived from it. Bridges are numbered along the chain shown (N, C = ends). [ ]: non-standard residue; d: D form. The star is where a group is joined. hPhe(3-Cl-4-CF3) = N[C@@H](CCc1ccc(C(F)(F)F)c(Cl)c1)C(=O)O; X15 = CCCN([C@@H](Cc1ccccc1)C(=O)[*:2])[*:1]; NMeGly(cPent) = CN[C@H](C(=O)O)C1CCCC1; NMeD = CN[C@@H](CC(=O)O)C(=O)O; NMeL = CN[C@@H](CC(C)C)C(=O)O; Morpholide = C1CN(*)CCO1; NMeA = CN[C@@H](C)C(=O)O; Ac5c = NC1(C(=O)O)CCCC1; Aze = O=C(O)[C@@H]1CCN1; Sar = CNCC(=O)O

How the values were obtained:
HRAS wild-type protein = HRAS wild-type protein (Homo sapiens, UniProt P01112); assay: Binding to HRAS by surface plasmon resonance (SPR), KD and KD ratio to KRAS
Sequence of HRAS wild-type protein (P01112 whole entry): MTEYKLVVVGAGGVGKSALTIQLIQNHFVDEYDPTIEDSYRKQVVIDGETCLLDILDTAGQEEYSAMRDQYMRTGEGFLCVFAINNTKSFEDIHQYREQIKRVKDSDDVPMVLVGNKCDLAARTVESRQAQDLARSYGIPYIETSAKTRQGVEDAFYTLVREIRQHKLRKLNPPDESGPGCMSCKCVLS
In short: (§1)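 Biotinylated GDP-bound RAS was captured at about 100–300 RU. Running buffer: HBS pH 7.4, 10 mM MgCl2, 10 µM GDP, 1 mM DTT, 0.01% Tween 20, 4% DMSO.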

[1] = system: human lung cancer strain NCI-H441; type: cell-based
In short: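 Step one: dispense the test compound in serial DMSO dilutions. Step three: add the reagent and measure […].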

[2] = molecular target: GDP-bound NRAS wild-type protein (Homo sapiens, UniProt P01111); assay: Binding to NRAS by surface plasmon resonance (SPR), KD and KD ratio to KRAS
Sequence of GDP-bound NRAS wild-type protein (P01111 whole entry): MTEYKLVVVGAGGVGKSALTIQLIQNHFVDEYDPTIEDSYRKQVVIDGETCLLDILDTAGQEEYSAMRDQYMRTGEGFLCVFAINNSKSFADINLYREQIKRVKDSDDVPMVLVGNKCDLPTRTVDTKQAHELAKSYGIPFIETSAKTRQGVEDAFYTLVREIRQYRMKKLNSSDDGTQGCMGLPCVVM
In short: as §1

[3] = ratio of KD for HRAS wild-type protein to KD for KRAS
[4] = ratio of KD for GDP-bound NRAS wild-type protein to KD for KRAS
[5] = ratio of the KD value with respect to HRAS wild-type protein to the KD value with respect to KRAS
[6] = ratio of the KD value with respect to GDP-bound NRAS wild-type protein to the KD value with respect to KRAS

Row | SMILES | IC50 [1] [nM] | HRAS /KRAS (HRAS wild-type protein; [3]) | NRAS /KRAS [2, 4] | HRAS /KRAS (HRAS wild-type protein; [5]) | NRAS /KRAS [2, 6] | HRAS /KRAS (HRAS wild-type protein; ratio of KD value for HRAS wild-type protein to KD value for KRAS (SPR)) | NRAS /KRAS ([2]; ratio of KD value for GDP-bound NRAS wild-type protein to KD value for KRAS (SPR))
1 | C#CCN1CC(=O)N(C)[C@H]2C/C=C\CCN(C2=O)[C@@H](Cc2ccc(C(F)(F)F)cc2)C(=O)N(C)CC(=O)N[C@@H](CCc2ccc(C(F)(F)F)c(OC)c2)C(=O)N2C[C@H](OCC)C[C@H]2C(=O)NC2(CC(C)(C)C2)C(=O)N(C)[C@@H](C2CCCC2)C(=O)N(C)[C@H](C(=O)N(C)C)CC(=O)N(C)[C@@H](CCC)C(=O)N[C@@H]([C@@H](C)CC)C1=O [PP2107] | 7.8 | – | – | A (a compound having 10 or more and less than 20 is denoted as A) | A (a compound having 10 or more and less than 20 is denoted as A) | – | –
2 | CC[C@H](C)[C@@H]1NC(=O)[C@H](CC)N(C)C(=O)C[C@@H](C(=O)N(C)C)N(C)C(=O)[C@H](C2CCCC2)N(C)C(=O)C2(CCC2)NC(=O)[C@@H]2CCCCN2C(=O)[C@H](CCc2cc(F)c(C(F)(F)F)c(F)c2)NC(=O)CN(C)C(=O)[C@H](Cc2ccc(C(F)(F)F)cc2)N2CCCCC[C@@H](C2=O)N(C)C(=O)CN(C)C1=O [PP0655] | 125 | – | – | B (a compound having 3 or more and less than 10 is denoted as B) | B (a compound having 3 or more and less than 10 is denoted as B) | – | –
3 | CCC[C@@H]1C[C@H]2C(=O)NC3(CCC3)C(=O)N(C)[C@@H](C3CCCC3)C(=O)N(C)[C@H](C(=O)N(C)C)CC(=O)N(C)[C@@H](CCC)C(=O)N[C@@H]([C@@H](C)CC)C(=O)N(C)CC(=O)N(C)[C@H]3C/C=C\CCN(C3=O)[C@@H](Cc3ccc(C)cc3)C(=O)N(C)CC(=O)N[C@@H](CCc3ccc(C(F)(F)F)c(Cl)c3)C(=O)N2C1 [PP2238] | 39.3 | – | – | A (a compound having 10 or more and less than 20 is denoted as A) | A (a compound having 10 or more and less than 20 is denoted as A) | – | –

Stronger by IC50 [1], values ahead:

Row | IC50 [1] [nM] | SMILES | HRAS /KRAS (HRAS wild-type protein; [3]) | NRAS /KRAS [2, 4] | HRAS /KRAS (HRAS wild-type protein; [5]) | NRAS /KRAS [2, 6] | HRAS /KRAS (HRAS wild-type protein; ratio of KD value for HRAS wild-type protein to KD value for KRAS (SPR)) | NRAS /KRAS ([2]; ratio of KD value for GDP-bound NRAS wild-type protein to KD value for KRAS (SPR))
4 | 4.2 | CCO[C@@H]1C[C@H]2C(=O)NC3(CC(C)(C)C3)C(=O)N(C)[C@@H](C3CCCC3)C(=O)N(C)[C@H](C(=O)N3CCCC3)CC(=O)N(C)[C@H]3CCC/C=C/c4ccc(cc4)C[C@@H](C(=O)N(C)CC(=O)N[C@@H](CCc4cc(F)c(C(F)(F)F)c(F)c4)C(=O)N2C1)N1CC/C=C\C[C@@H](C1=O)N(C)C(=O)CN(C)C(=O)[C@H]([C@@H](C)CC)NC3=O [PP2574] | A (a compound having 10 or more and less than 20 is denoted as A) | A (a compound having 10 or more and less than 20 is denoted as A) | – | – | – | –
5 | 3.1 | CCCN(C)C(=O)[C@@H]1CC(=O)N(C)[C@@H](CC2CC2)C(=O)N[C@@H]([C@@H](C)CC)C(=O)N(C)CC(=O)N(C)[C@H]2C/C=C\CCN(C2=O)[C@@H](Cc2ccc(C(F)(F)F)cc2)C(=O)N(C)CC(=O)N[C@@H](CCc2cc(F)c(C(F)(F)F)c(F)c2)C(=O)N2C[C@H](F)C[C@H]2C(=O)NC2(CC(C)(C)C2)C(=O)N(C)[C@@H](C2CCCC2)C(=O)N1C [PP1665] | – | – | – | – | A (a compound having 10 or more and less than 20 is denoted as A) | AA (a compound having 20 or more is denoted as AA)
6 | 3 | CCCN1C(=O)[C@@H]2CCN2C(=O)[C@H](C)N(C)C(=O)[C@H]([C@@H](C)CC)NC(=O)[C@H](CC(C)C)N(C)C(=O)C[C@@H](C(=O)N2CCOCC2)N(C)C(=O)[C@H](C2CCCC2)N(C)C(=O)C2(CCCC2)NC(=O)[C@@H]2CCCN2C(=O)[C@H](CCc2ccc(C(F)(F)F)c(Cl)c2)NC(=O)CN(C)C(=O)[C@@H]1Cc1ccccc1 [PP0216] ([NMeL]I[NMeA][Aze][X15][Sar][hPhe(3-Cl-4-CF3)]P[Ac5c][NMeGly(cPent)][NMeD]-Morpholide; lactam N-11) | B (a compound having 3 or more and less than 10 is denoted as B) | C (A compound having a KD ratio of 0.1 or more and less than 3 is denoted as C) | – | – | – | –
